Assay results reported in PubChem BioAssay AID1963984 (Molecular Pharmacology Branch, DTP, NCI, 2024).

Test system: 233499-124-R-J3-PDC spheroids with HUVEC/MSC, viability
Test: Anticancer human tumor 233499-124-R-J3-PDC patient-derived colon adenocarcinoma cell line growth inhibition [PI3K]
Conditions: for IC50: curve of first compound; for viability, T/C: stronger effect = lower value
Procedure, shortened: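 Tumor cells were combined with HUVEC and MSCs into spheroids, then dosed with PI3K-inhibitor combinations over half-log ranges capped near clinical Cmax or 10 microM.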

[1] = second compound 0.0316 µM, first compound 0.0316 µM
[2] = second compound 0.0316 µM, first compound 0.1 µM
[3] = second compound 0.0316 µM, first compound 0.316 µM
[4] = second compound 0.0316 µM, first compound 1 µM
[5] = second compound 0.0316 µM, first compound 3.16 µM
[6] = second compound 0.0316 µM, first compound 10 µM
[7] = second compound 0.1 µM, first compound 0.0316 µM
[8] = second compound 0.1 µM, first compound 0.1 µM
[9] = second compound 0.1 µM, first compound 0.316 µM
[10] = second compound 0.1 µM, first compound 1 µM
[11] = second compound 0.1 µM, first compound 3.16 µM
[12] = second compound 0.1 µM, first compound 10 µM
[13] = second compound 0.316 µM, first compound 0.0316 µM
[14] = second compound 0.316 µM, first compound 0.1 µM
[15] = second compound 0.316 µM, first compound 0.316 µM
[16] = second compound 0.316 µM, first compound 1 µM
[17] = second compound 0.316 µM, first compound 3.16 µM
[18] = second compound 0.316 µM, first compound 10 µM
[19] = second compound 1 µM, first compound 0.0316 µM
[20] = second compound 1 µM, first compound 0.1 µM
[21] = second compound 1 µM, first compound 0.316 µM
[22] = second compound 1 µM, first compound 1 µM
[23] = second compound 1 µM, first compound 3.16 µM
[24] = second compound 1 µM, first compound 10 µM
[25] = second compound 3.16 µM, first compound 0.0316 µM
[26] = second compound 3.16 µM, first compound 0.1 µM
[27] = second compound 3.16 µM, first compound 0.316 µM
[28] = second compound 3.16 µM, first compound 1 µM
[29] = second compound 3.16 µM, first compound 3.16 µM
[30] = second compound 3.16 µM, first compound 10 µM
[31] = second compound 10 µM, first compound 0.0316 µM
[32] = second compound 10 µM, first compound 0.1 µM
[33] = second compound 10 µM, first compound 0.316 µM
[34] = second compound 10 µM, first compound 1 µM
[35] = second compound 10 µM, first compound 3.16 µM
[36] = second compound 10 µM, first compound 10 µM
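Further: spheroids exposed to agents for seven days before readout.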
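Wherever viability, T/C is given: percent viability relative to DMSO vehicle control taken as 100%.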

CCCS(=O)(=O)Nc1ccc(F)c(C(=O)c2c[nH]c3ncc(-c4ccc(Cl)cc4)cc23)c1F + Cc1nc(NC(=O)N2CCCC2C(N)=O)sc1-c1ccnc(C(C)(C)C(F)(F)F)c1
IC50 (second compound 0.0316 µM): 5.29 µM
IC50 (second compound 0.1 µM): 4.82 µM
IC50 (second compound 0.316 µM): 4.83 µM
IC50 (second compound 1 µM): 4.7 µM
IC50 (second compound 3.16 µM): 3.57 µM
IC50 (second compound 10 µM): < 0.0316 µM
viability, T/C [1]: 119%
viability, T/C [2]: 98.2%
viability, T/C [3]: 87.2%
viability, T/C [4]: 110%
viability, T/C [5]: 89%
viability, T/C [6]: 1.84%
viability, T/C [7]: 97%
viability, T/C [8]: 109%
viability, T/C [9]: 84.8%
viability, T/C [10]: 92.5%
viability, T/C [11]: 77.7%
viability, T/C [12]: 4.22%
viability, T/C [13]: 98.9%
viability, T/C [14]: 81.7%
viability, T/C [15]: 84.5%
viability, T/C [16]: 98.1%
viability, T/C [17]: 78.2%
viability, T/C [18]: 1.3%
viability, T/C [19]: 82.8%
viability, T/C [20]: 71.8%
viability, T/C [21]: 86.3%
viability, T/C [22]: 67%
viability, T/C [23]: 75.3%
viability, T/C [24]: 1.86%
viability, T/C [25]: 55.8%
viability, T/C [26]: 59.1%
viability, T/C [27]: 49.1%
viability, T/C [28]: 53.9%
viability, T/C [29]: 59.4%
viability, T/C [30]: 4.28%
viability, T/C [31]: 34.1%
viability, T/C [32]: 35.4%
viability, T/C [33]: 50.9%
viability, T/C [34]: 29.8%
viability, T/C [35]: 22.8%
viability, T/C [36]: 0.89%

CNC(=O)c1ccc(N2C(=S)N(c3ccc(C#N)c(C(F)(F)F)c3)C(=O)C2(C)C)cc1F + Cc1nc(NC(=O)N2CCCC2C(N)=O)sc1-c1ccnc(C(C)(C)C(F)(F)F)c1
IC50 (second compound 0.0316 µM): 9.8 µM
IC50 (second compound 0.1 µM): > 10 µM
IC50 (second compound 0.316 µM): > 10 µM
IC50 (second compound 1 µM): > 10 µM
IC50 (second compound 3.16 µM): 4.62 µM
IC50 (second compound 10 µM): < 0.0316 µM
viability, T/C [1]: 101%
viability, T/C [2]: 107%
viability, T/C [3]: 80.8%
viability, T/C [4]: 100%
viability, T/C [5]: 102%
viability, T/C [6]: 49.1%
viability, T/C [7]: 111%
viability, T/C [8]: 72.8%
viability, T/C [9]: 66%
viability, T/C [10]: 84.1%
viability, T/C [11]: 85.9%
viability, T/C [12]: 73.2%
viability, T/C [13]: 95.8%
viability, T/C [14]: 100%
viability, T/C [15]: 70.6%
viability, T/C [16]: 88.3%
viability, T/C [17]: 85.9%
viability, T/C [18]: 56.2%
viability, T/C [19]: 105%
viability, T/C [20]: 70.3%
viability, T/C [21]: 78.9%
viability, T/C [22]: 61.5%
viability, T/C [23]: 60.5%
viability, T/C [24]: 51.3%
viability, T/C [25]: 59.1%
viability, T/C [26]: 51.1%
viability, T/C [27]: 61.2%
viability, T/C [28]: 54.5%
viability, T/C [29]: 57%
viability, T/C [30]: 37%
viability, T/C [31]: 24%
viability, T/C [32]: 34.6%
viability, T/C [33]: 28.1%
viability, T/C [34]: 31.8%
viability, T/C [35]: 29.3%
viability, T/C [36]: 19.6%
